Consider 38 compounds from the supplement of paper PMC10949913.

What all share (assay): area under concentration-response curve (viability) (AUC (a.u.)); higher = less active
Common to all, as to conditions: 48 h

One assay deals with CU-ACC1. In short, it runs like this:
(§1)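 For each of three adrenocortical carcinoma cell lines, 500–1,000 cells/well were placed in 5 µL medium in 1,536-well plates. A 23 nL volume of every library compound was added at 11 concentrations. Following 48 h, a 15-minute room-temperature CellTiter-Glo step preceded luminescence reading, with signals normalised per plate to vehicle and empty-well controls. AC50 and area under the curve were derived by curve fitting, retaining only inhibitory or non-responding curve classes.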

For the next assay, the system named is CU-ACC2. In short, it runs like this:
as §1

The subject of a further assay is NCI-H295R. In short, it runs like this:
as §1

`CC(C)[C@H]1C(=O)N[C@H](CO)Cc2c[nH]c3cccc(c23)N1C`: the figures for the “area under concentration-response curve” value with CU-ACC1, in the assay with CU-ACC2 and with NCI-H295R were 384, 539 and 575, respectively.

Turning to `C[C@]12CC[C@H]3[C@@H](CCC/4=C/C(=O)CC[C@]34C)[C@@H]1CC[C@@H]2OC(=O)CCC5CCCC5`, the “area under concentration-response curve” value in the assay on CU-ACC1 is 581; with CU-ACC2, 618; with NCI-H295R it was 569.

Consider `FC(F)(F)c1ccc(/C=C/c2nc(COc3ccc(CCCCn4ccnn4)cc3)co2)cc1`, for which the “area under concentration-response curve” value with CU-ACC1 came to 265; in the assay on CU-ACC2, 596; with NCI-H295R, 531.

Regarding `c1ccc2c(CN3CCNCC3)cccc2c1`, the “area under concentration-response curve” value in the assay with CU-ACC1 worked out at 525; in the assay on CU-ACC2 it was 647; in the assay on NCI-H295R, 580.

On to `COc1ccc(-c2cc(=O)c3c(O)cc(O)cc3o2)cc1O`, for which the figures for the “area under concentration-response curve” value in the assay with CU-ACC1, with CU-ACC2 and with NCI-H295R were 452, 447 and 437, respectively.

In the case of `Oc1ccc(C2CNCCc3c2cc(O)c(O)c3Cl)cc1` (centres undefined), the “area under concentration-response curve” value in the assay on CU-ACC1 was 468; in the assay on CU-ACC2 it was 538; in the assay on NCI-H295R, 524.

Turning to `CCOC1=CC=C(C=C1)N2C(=O)C3=CC=CN=C3/N=C2/[C@@H](C)N(CC4=CC=CN=C4)C(=O)CC5=CC=C(F)C(=C5)C(F)(F)F`, the “area under concentration-response curve” value in the assay on CU-ACC1 was 516; in the assay with CU-ACC2 it was 606; in the assay on NCI-H295R, 569.

Regarding `Cc1n[nH]c2ncc(C(=O)N3CCC[C@H]3c3ccc(Cl)cc3)cc12`, the entries for the “area under concentration-response curve” value in the assay on CU-ACC1, with CU-ACC2 and with NCI-H295R were 414, 540 and 503, respectively.

Consider `Cn1c(=O)c2[nH]cnc2n(C)c1=O`, for which the “area under concentration-response curve” value with CU-ACC1 was 447; with CU-ACC2, 555; with NCI-H295R, 469.

With `C[C@@H]1C\C2=C(CCC(=O)C2)/[C@H]3CC[C@@]4(C)[C@@H](CC[C@@]4(O)C#C)[C@H]13`, the “area under concentration-response curve” value in the assay on CU-ACC1 amounted to 560; in the assay with CU-ACC2, 592; in the assay with NCI-H295R, 547.

Regarding `CC(C)=CCC[C@](C)(O[C@@H]1O[C@H](CO[C@@H]2O[C@H](CO)[C@@H](O)[C@H](O)[C@H]2O)[C@@H](O)[C@H](O)[C@H]1O)[C@H]1CC[C@]2(C)[C@@H]1[C@H](O)C[C@@H]1[C@@]3(C)CC[C@H](O[C@@H]4O[C@H](CO)[C@@H](O)[C@H](O)[C@H]4O[C@@H]4O[C@H](CO)[C@@H](O)[C@H](O)[C@H]4O)C(C)(C)[C@@H]3CC[C@]12C`, the figures for the “area under concentration-response curve” value in the assay on CU-ACC1, in the assay on CU-ACC2 and in the assay on NCI-H295R were 533, 637 and 591, respectively.

As for `COc1cc([C@@H](CC(=O)O)c2ccc(C)c(CN3C[C@@H](C)Oc4ccccc4[S+]3(=O)[O-])c2)cc2nnn(C)c12`, the “area under concentration-response curve” value is 341 with CU-ACC1, 295 in the assay with CU-ACC2 and 348 in the assay on NCI-H295R.

As for `CN[C@@H](C)C(=O)N[C@H](C(=O)N1CCC[C@H]1c1nc(C(=O)c2ccc(F)cc2)cs1)C1CCCCC1`, the “area under concentration-response curve” value in the assay on CU-ACC1 turned out to be 525; with CU-ACC2, 571; in the assay on NCI-H295R it was 546.

Turning to `CC1SC/2=C(C(O)=O)/C(=O)C3=CC(=C(C=C3N12)N4CCN(CC4)C\C5=C(C)\OC(=O)O5)F` (centres undefined), the “area under concentration-response curve” value in the assay with CU-ACC1 stood at 586; in the assay on CU-ACC2, 612; with NCI-H295R, 565.

For the compound `C[C@](N)(Cc1ccc(O)c(O)c1)C(=O)O`, the “area under concentration-response curve” value came out at 475 in the assay on CU-ACC1, 477 with CU-ACC2 and 524 in the assay on NCI-H295R.

As for `C[C@@H]1[C@H]\2[C@H](O)[C@H]3[C@H](N(C)C)\C(=C(C(N)=O)/C(=O)[C@@]3(O)\C(=C2C(=O)C4=C(O)C=CC=C14)O)O`, the “area under concentration-response curve” value in the assay with CU-ACC1 turned out to be 406; with CU-ACC2 it was 325; with NCI-H295R it was 403.

Turning to `NC/1=N/C(=O)N(/C=N1)[C@@H]2O[C@H](CO)[C@@H](O)[C@H]2O`, the “area under concentration-response curve” value stood at 469 in the assay on CU-ACC1, 522 in the assay on CU-ACC2 and 504 with NCI-H295R.

Turning to `NC(=O)c1cnccn1`, the “area under concentration-response curve” value in the assay on CU-ACC1 came to 346; in the assay on CU-ACC2 it was 301; in the assay with NCI-H295R, 382.

Turning to `CCC(=O)NC[C@H](Cc1ccc(OCCc2nc(-c3ccccc3)oc2C)cc1)N/C(C)=C\C(=O)c1ccc(C(F)(F)F)cc1`, the “area under concentration-response curve” value in the assay with CU-ACC1 is 498; in the assay with CU-ACC2, 548; in the assay with NCI-H295R it was 487.

In the case of `Cc1cc(O)cc2c1[C@]1(C)CC[C@H]3C(C)(C)CCC[C@]3(C)[C@H]1C2`, the “area under concentration-response curve” value in the assay on CU-ACC1 worked out at 53.6; in the assay on CU-ACC2, 190; in the assay with NCI-H295R, 89.9.

Turning to `CCOC(=O)c1c(C)n(C)c2ccc(O)cc12`, the “area under concentration-response curve” value in the assay with CU-ACC1 was found to be 536; with CU-ACC2 it was 593; in the assay on NCI-H295R, 520.

`N[S+](=O)([O-])NCCNc1nonc1/C(=N/O)Nc1ccc(F)c(Br)c1`: the “area under concentration-response curve” value with CU-ACC1 worked out at 524; in the assay on CU-ACC2, 595; in the assay with NCI-H295R it was 468.

Consider `Cc1cnc(NC(=O)C2=C(O)c3ccccc3S(=O)(=O)N2C)s1`, for which the entries for the “area under concentration-response curve” value in the assay with CU-ACC1, in the assay on CU-ACC2 and in the assay with NCI-H295R were 393, 409 and 396, respectively.

`COC1(C[S+]([O-])c2ccccc2)CCN(CCc2c[nH]c3ccc(F)cc23)CC1` (centres undefined): the “area under concentration-response curve” value worked out at 477 with CU-ACC1, 469 with CU-ACC2 and 493 in the assay on NCI-H295R.

Consider `COc1ccc(C(=O)N2CCCC2=O)cc1`, for which the “area under concentration-response curve” value with CU-ACC1 was 533; in the assay with CU-ACC2, 655; in the assay on NCI-H295R, 573.

For the compound `Nc1nc(OC(c2ccc(-c3cccc(F)c3)cc2)C(F)(F)F)cc(-c2ccc(C[C@H](N)C(=O)O)cc2)n1` (some centres undefined), the “area under concentration-response curve” value in the assay on CU-ACC1 worked out at 546; with CU-ACC2, 519; in the assay with NCI-H295R it was 555.

With `CC(NCCc1ccc(O)cc1)C(O)c1ccc(O)cc1` (centres undefined), the results for the “area under concentration-response curve” value in the assay on CU-ACC1, in the assay with CU-ACC2 and in the assay on NCI-H295R were 523, 592 and 496, respectively.

For `c1coc(CNc2ncnc3nc[nH]c23)c1`, the entries for the “area under concentration-response curve” value in the assay with CU-ACC1, in the assay with CU-ACC2 and in the assay with NCI-H295R were 409, 556 and 565, respectively.

For `N#Cc1ccnc(N2C(=O)CC[C@H]2C(=O)N(c2cncc(F)c2)C(C(=O)NC2CC(F)(F)C2)c2ccccc2Cl)c1` (some centres undefined), the “area under concentration-response curve” value with CU-ACC1 is 500; in the assay on CU-ACC2, 602; in the assay on NCI-H295R, 578.

Consider `O=C(CN1C(=O)C2(CCCC2)NC[C@H]1c1cc(F)cc(F)c1)Nc1ccc2c(c1)C[C@@]1(C2)C(=O)Nc2ncccc21`, for which the results for the “area under concentration-response curve” value with CU-ACC1, in the assay on CU-ACC2 and with NCI-H295R were 463, 565 and 515, respectively.

On to `Nc1ncnc2c1ncn2[C@@H]1O[C@H](CO)[C@@H](O)[C@H]1O`, for which the “area under concentration-response curve” value amounted to 463 in the assay on CU-ACC1, 506 with CU-ACC2 and 470 in the assay on NCI-H295R.

For `CC[C@H](C)C(=O)O[C@H]1C[C@@H](C)\C=C2\C=C/[C@H](C)[C@H](CC[C@@H]3C[C@@H](O)CC(=O)O3)[C@@H]12`, the “area under concentration-response curve” value was determined as 576 with CU-ACC1, 647 in the assay on CU-ACC2 and 576 with NCI-H295R.

With `CC(=O)NC[C@H]1CN(c2ccc(N3CCOCC3)c(F)c2)C(=O)O1`, the “area under concentration-response curve” value with CU-ACC1 stood at 565; in the assay on CU-ACC2, 700; with NCI-H295R, 612.

With `N#Cc1cccc(-c2c[nH]c3ncnc(N4CCOCC4)c23)c1`, the “area under concentration-response curve” value is 508 in the assay with CU-ACC1, 595 in the assay on CU-ACC2 and 553 in the assay with NCI-H295R.

`CC(C)C/1=C(NC2=C(C=N[N]2C1=O)C#N)\C3=CC=CC=C3`: the figures for the “area under concentration-response curve” value in the assay on CU-ACC1, in the assay with CU-ACC2 and with NCI-H295R were 497, 580 and 480, respectively.

Consider `Nc1cccc2c1C(=O)N(C1CCC(=O)NC1=O)C2=O` (centres undefined), for which the “area under concentration-response curve” value with CU-ACC1 stood at 520; in the assay with CU-ACC2, 645; in the assay on NCI-H295R, 567.

Consider `C[C@H]1CC2[C@@H]3CCC/4=C/C(=O)/C=C\[C@]4(C)[C@@]3(F)[C@@H](O)C[C@]2(C)[C@@]1(O)C(=O)CO` (some centres undefined), for which the “area under concentration-response curve” value was 477 with CU-ACC1, 572 in the assay on CU-ACC2 and 551 in the assay with NCI-H295R.

Consider `CCC[C@H](N[C@@H](C)C(=O)N1[C@H](C(=O)O)C[C@@H]2CCCC[C@@H]21)C(=O)OCC`, for which the “area under concentration-response curve” value in the assay on CU-ACC1 was 531; in the assay with CU-ACC2, 589; with NCI-H295R it was 548.
